# Structures can show the parent of a compound that is named as a salt. Where two headings read alike, the source gives them in different places. Peptide text beside a SMILES is read from it. * marks the point of attachment. Lauroyl = CCCCCCCCCCCC(=O)*
# Tests used:
# [1] = Cytotoxicity, MTT assay; type: cell-based; details: human, HaCaT keratinocyte cells, read-out: cell viability; for viability at 24 h, 50 µg/mL: at 50 µg/mL
# Experimental: (§1) Immortal human keratinocyte cells (HaCaT) and […] (3T3) were obtained from Celltec, University of Barcelona. Dulbecco’s Modified Eagle Medium (DMEM) (4.5 g/L glucose) supplemented with 10% (v/v) FBS, 2 mM L-glutamine, 100 U/mL of penicillin, and 100 μg/mL of streptomycin was used to grow the cells in 75 cm^2 culture flasks at 37 °C with a continuous supply of CO2 at a 5% level. Once cells reached about 80% confluence, they were trypsinized with trypsin-EDTA.
# (§2) Cells were first grown into the central 60 wells of a 96-well plate under 5% CO2 at 37 °C for 24 h. The DMEM was removed, and cells were exposed to different concentrations of each amphiphile diluted in DMEM supplemented with 5% FBS for 24 h. Finally, two different assays for quantification were used.
# (§3) This method relies on the ability of living cells to reduce the yellow MTT reagent into insoluble purple formazan crystals. After the cells were incubated with the surfactants’ solutions, the medium was eliminated, and 100 μL of MTT in PBS (5 mg/mL) diluted 1:10 in culture medium (without phenol red and FBS) was added to each well and co-incubated for 3 h. Then, the medium was discarded, and DMSO was added into each well to solubilize the formazan crystals. Finally, the absorbance of the resulting solutions was measured at 550 nm using a microplate reader (Bio-Rad 550 Hercules, CA, USA).
# The cytotoxic effects of these cationic surfactants were also evaluated using two different cell lines. […] In this work, the cellular response upon incubation with the different surfactant series was evaluated in two representative skin cell lines: Swiss mouse fibroblasts (3T3 cell line) and human-derived keratinocytes (HaCaT cell line). The in vitro cytotoxicity was determined using the MTT as a measure of mitochondrial activity and the Neutral Red Uptake (NRU) related to lysosomal integrity, which are the most commonly used in vitro cytotoxicity endpoint methods. The cellular response at different concentrations (5, 25, 50, and 100 µM) was evaluated after 24 h of incubation.
# [2] = tested on: 3T3 cells; experiment: Cytotoxicity, Neutral Red Uptake (NRU) assay; type: cell-based, Swiss mouse; details: 3T3, NRU, 24 h; moderate toxicity (TANHC12, PANHC12), onset of dramatic toxicity (PNHC12)
# Experimental: as §1, §2
# (§4) The NRU assay is based on the accumulation of neutral red dye within the lysosomes of viable, intact cells. Once the cells were incubated with the surfactants, the DMEM was removed, and the NRU dye solution (50 μg/mL dissolved in the medium without FBS and phenol red) was added to each well, and the reaction was allowed for 2 h. The cells were washed with PBS, and 100 μL of an aqueous solution containing 50% absolute ethanol and 1% acetic acid was then added to each well to extract the incorporated dye. The microplates were then stirred for 5 min at 25 °C to facilitate dissolution. Finally, the absorbance of the resulting solutions was measured at λ = 550 nm using a Bio-Rad 550 microplate reader (Hercules, CA, USA).
# (§5) The cytotoxic effects of these cationic surfactants were also evaluated using two different cell lines. The use of in vitro cytotoxicity tests is increasing daily, driven by the rise in human exposure to chemicals, as these tests are less costly and time-consuming than in vivo methods. The purpose of in vitro cytotoxicity tests is to detect the biocompatibility of these new surfactants. In this work, the cellular response upon incubation with the different surfactant series was evaluated in two representative skin cell lines: Swiss mouse fibroblasts (3T3 cell line) and human-derived keratinocytes (HaCaT cell line). The in vitro cytotoxicity was determined using the MTT as a measure of mitochondrial activity and the Neutral Red Uptake (NRU) related to lysosomal integrity, which are the most commonly used in vitro cytotoxicity endpoint methods. The cellular response at different concentrations (5, 25, 50, and 100 µM) was evaluated after 24 h of incubation.
# [3] = design: method as in PMID 36559096; details: CO2 Headspace test, pass level 60%; cited from earlier work
# [4] = Cytotoxicity, MTT assay; type: cell-based, Swiss mouse; details: mouse, 3T3 fibroblast cells, 3T3, MTT, read-out: cell viability; for viability at 24 h, 50 µg/mL: at 50 µg/mL; for viability at 24 h, 100 µg/mL: at 100 µg/mL
# Experimental: as §1, §2, §3, §5
# [5] = tested on: 3T3 cells; experiment: Cytotoxicity, MTT assay; type: cell-based, Swiss mouse; details: Mus musculus, NIH3T3; 3T3, MTT, 24 h; read from viability curves
# Experimental: as §1, §2, §3, §5
# [6] = tested on: C. albicans biofilms; experiment: Eradication of mature biofilm, MTT method; type: cell-based, Candida albicans; details: for concentration removing the total viability of the biofilm: 24 h treatment
# Experimental: (§6) Candida strains were cultured in SBA at 30 °C for 24 h. Yeast cells were then suspended in RPMI 1640 broth to a final concentration of 1.5 × 10^7 CFU/mL. For mature biofilm formation, 200 μL of these suspensions was transferred to each well of a 48-well microplate and incubated at 30 °C for 24 h. After incubation, the plate was washed with phosphate-buffered saline (PBS) to remove non-adherent cells. Then, surfactant solutions at various concentrations (200 μL), prepared in RPMI 1640, were added to the wells containing the mature biofilms. Plates were incubated again at 30 °C for 24 h. Following this treatment, the RPMI medium was removed, and wells were washed twice with PBS. To assess biofilm viability, 200 μL of MTT solution (3-(4,5-dimethylthiazol-2-yl)-2,5-diphenyltetrazolium bromide) were added to each well, and plates were incubated for 4 h. After incubation, the MTT solution was removed, and 200 μL of dimethyl sulfoxide (DMSO) were added to solubilize the formazan crystals. Absorbance at 540 nm (A540) was then measured using a microplate reader. Controls without the amino acid-based surfactants were included. All experiments were made in quadruplicate, and the results were averaged to ensure accuracy and reproducibility.
# (§7) In this section, we have tested the ability of these cationic surfactants to eradicate mature fungal biofilms of C. albicans and C. tropicalis. Preformed biofilms of these two strains on 48-well plates were exposed to various concentrations of the synthesized surfactants, and the biofilm was not removed after the treatment was quantified using the MTT method (3-[4,5-dimethylthiazol-2-yl]-2,5 diphenyl tetrazolium bromide) (Figure 4). This method detects viable and metabolically active cells within the biofilm by measuring the reduction in MTT to formazan by active mitochondrial enzymes.
# [7] = tested on: C. tropicalis biofilms; experiment: Eradication of mature biofilm, MTT method; type: cell-based, Candida tropicalis; details: 24 h treatment
# Experimental: as §6, §7
# [8] = Cytotoxicity, Neutral Red Uptake (NRU) assay; type: cell-based, Swiss mouse; details: mouse, 3T3 fibroblast cells, 3T3, NRU, across the full concentration range, read-out: cell viability
# Experimental: as §1, §2, §4, §5
smiles,measurement,setting,value
"CCCCCCCCCCCCNC(=O)C(N)Cc1ccccc1 (centres unmarked) [PNHC12, phenylalanine dodecyl amide hydrochloride]","viability at 24 h, 50 µg/mL",[1],0%
same,concentration at which toxicity was seen,[2],5000 ng/mL
same,biodegradation,[3],did not reach this pass level
same,"viability at 24 h, 50 µg/mL",[4],~0%
same,IC50,[5],< 50 µg/mL
CCCCCCCCCCNC(=O)C(CCCNC(=N)N)NC(=O)C(N)Cc1ccccc1 (centres unmarked) [PANHC10],concentration removing the total viability of the biofilm,[6],≈ 400 μM
same,concentration removing the total viability of the biofilm,[7],≈ 400 μM
CCCCCCCCCCCCCCNC(=O)C(CCCNC(=N)N)NC(=O)C(N)Cc1ccccc1 (centres unmarked) [PANHC14],concentration removing the total viability of the biofilm,[6],≈ 50 μM
same,concentration removing the total viability of the biofilm,[7],≈ 50 μM
CCCCCCCCCCCC(=O)NC(Cc1ccccc1)C(=O)NC(CCCNC(=N)N)C(=O)OC (stereo not drawn) [C12PAM] (Lauroyl-Phe-Arg-OMe; configuration not given here),viability at 24 h,[8],60 to 100%
same,biodegradation,[3],over 60%
same,"viability at 24 h, 100 µg/mL",[4],~60%
same,reduction of the metabolic activity of the biofilm,[6]; highest concentration tested,less than 65%
CCCCCCCCCCCC(=O)NC(CCCNC(=N)N)C(=O)OC (centres unmarked) [C12AM],"viability at 24 h, 50 µg/mL",[1],~90%
same,viability at 24 h,[8],100%
same,biodegradation,[3],over 60%
same,viability at 24 h,[4]; across all concentrations up to 100 µg/mL,> 85%
CCCCCCCCCCNC(=O)C(CCCNC(=N)N)NC(=O)C(N)Cc1c[nH]c2ccccc12 (centres unmarked) [TANHC10],viability at 24 h,[1]; across the concentration range (TANHCn series),~80%
CCCCCCCCCCCCNC(=O)C(CCCNC(=N)N)NC(=O)C(N)Cc1c[nH]c2ccccc12 (centres unmarked) [TANHC12],concentration at which toxicity was seen,[2],around 50 µg/mL
same,biodegradation,[3],did not reach this pass level
"CCCCCCCCCCCCNC(=O)C(CCCNC(=N)N)NC(=O)C(N)Cc1ccccc1 (centres unmarked) [PANHC12, phenylalanine-arginine dodecyl amide dihydrochloride]",concentration at which toxicity was seen,[2],around 50 µg/mL
same,biodegradation,[3],did not reach this pass level
same,"viability at 24 h, 50 µg/mL",[4],~70%
same,"viability at 24 h, 100 µg/mL",[4],5%
same,concentration removing the total viability of the biofilm,[6],≈ 50 μM
same,concentration removing the total viability of the biofilm,[7],≈ 50 μM

# Source: paper PMC12452389, “Arginine-Derived Cationic Surfactants Containing Phenylalanine and Tryptophan: Evaluation of Antifungal Activity, Biofilm Eradication, Cytotoxicity, and Ecotoxicity” (Journal of Xenobiotics, 2025)
